Patent publication US6384061B1, “Hydantoin compounds and methods related thereto” (LG Chemical Ltd., priority 2000, dated 2002)
pIC50: −log10 of the molar value.

Assays:
Ras farnesyl transferase = molecular target: T1, Ras farnesyl transferase (Homo sapiens, UniProt P49354+P49356); experiment: Ras farnesyl transferase inhibiting activity (filter-binding, tritium-farnesylpyrophosphate, Ras-CVLS substrate); assay type: biochemical; conditions: recombinant Ras farnesyl transferase, 30 minutes at 37° C., read-out: Ftase IC50
T1 construct: made in house

[1] = test system: intracellular Ras farnesyl transferase, Rat2 cell line; experiment: Intracellular Ras farnesyl transferase inhibiting activity in transformed Rat2 cells (35S-methionine labelling, Y13-259 immunoprecipitation, SDS-PAGE); assay type: cell-based; conditions: Rattus norvegicus; transformed Rat2 fibroblast cell line; concentration inhibiting 50% of farnesyl binding of Ras protein; read-out: Ftase CIC50
Outline: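 Rat2 fibroblasts transformed with H-Ras, or with H-Ras carrying the K-Ras polybasic lysine C-terminus, were treated with compound (1% DMSO). After 4 h they were labelled for 20 h with 150 μCi/ml 35S-methionine. Lysates were immunoprecipitated with Y13-259, run on 13.5% SDS-PAGE and autoradiographed; CIC50 is the concentration halving farnesylated versus unfarnesylated Ras band intensity.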

[2] = molecular target: T2, Geranylgeranyl transferase (Bos taurus, UniProt P29702+Q5EAD5); experiment: Geranylgeranyl transferase inhibiting activity (geranylgeranyl pyrophosphate, Ras-CVIL substrate); assay type: biochemical; conditions: geranylgeranyl transferase purified from bovine brain, read-out: GGtase IC50
T2 construct: Geranylgeranyl transferase was purified from bovine brain; from tissue; host or cells: bovine brain
Outline: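 Bovine-brain-purified enzyme run as in the farnesyl transferase assay, with geranylgeranyl pyrophosphate and Ras-CVIL substrate protein under similar reaction conditions.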

pIC50 (Ras farnesyl transferase) | pIC50 [2] | Structure (SMILES) | pIC50 [1]
5.60 | < 5.00 | COC(=O)C(CCSC)NC(=O)CN1C(=O)N(CCc2c[nH]cn2)C(=O)C1(C)c1cccc2ccccc12 (stereo not drawn) [Compound 3, 2-(2-{3-[2-(1H-imidazol-4-yl)-ethyl]-5-methyl-5-naphthalen-1-yl-2,4-dioxo-imidazolidin-1-yl}-acetylamino)-4-methylsulfanyl-butyric acid methyl ester] | 5.30
7.85 | < 5.00 | CSCCC(NC(=O)CN1C(=O)N(CCCc2cncn2Cc2ccc(C#N)cc2)C(=O)C1(C)c1cccc2ccccc12)C(=O)O (stereo not drawn) [Compound 58, 2-[2-(3-{3-[3-(4-cyanobenzyl)-3H-imidazol-4-yl]-propyl}-5-methyl-5-naphthalen-1-yl-2,4-dioxo-imidazolidin-1-yl)-acetylamino]-4-methylsulfanyl-butyric acid] | > 4.70
5.92 | < 5.00 | CC1(c2cccc3ccccc23)C(=O)N(CCCn2ccnc2)C(=O)N1Cc1cccc(CNS(C)(=O)=O)c1 (stereo not drawn) [Compound 36, N-{3-[3-(3-imidazol-1-yl-propyl)-5-methyl-5-naphthalen-1-yl-2,4-dioxo-imidazolidin-1-ylmethyl]-benzyl}-methanesulfonamide] | > 4.70
7.72 | < 5.00 | CCOC(=O)CN1C(=O)N(CCCc2cncn2Cc2ccc(C#N)cc2)C(=O)C1(C)c1cccc2ccccc12 (stereo not drawn) [Compound 51, (3-{3-[3-(4-cyanobenzyl)-3H-imidazol-4-yl]-propyl}-5-methyl-5-naphthalen-1-yl-2,4-dioxo-imidazolidin-1-yl)-acetic acid ethyl ester] | > 4.70
5.82 | < 5.00 | COCCN(C)C(=O)CC1C(=O)N(Cc2cncn2Cc2ccc(Br)cc2)C(=O)N1Cc1cccc2ccccc12 (stereo not drawn) [Compound 83, 2-{1-[3-(4-bromo-benzyl)-3H-imidazol-4-ylmethyl]-3-naphthalen-1-ylmethyl-2,5dioxo-imidazolidin-4-yl}-N-(2-methoxy-ethyl)-N-methyl-acetamide] | < 4.30
5.44 | < 5.00 | CC1(c2cccc3ccccc23)C(=O)N(CCCn2ccnc2)C(=O)N1CC(=O)NC1(C#N)CCOCC1 (stereo not drawn) [Compound 67, N-(4-cyano-tetrahydropyran-4-yl)-2-[3-(3-imidazol-1yl-propyl)-5-methyl-5-naphthalen-1-yl-2,4-dioxo-imidazolidin-1-yl]-acetamide] | > 4.70
< 4.30 | < 5.00 | CC1(c2cccc3ccccc23)C(=O)N(CCCc2cnc[nH]2)C(=O)N1CC(=O)N1CCSC1 (stereo not drawn) [Compound 10, 3-[3-(3H-imidazol-4-yl)-propyl]-5-methyl-5-naphthalen-1-yl-1-(2-oxo-2-thiazolidin-3-yl-ethyl)-imidazolidin-2,4-dione] | > 4.70
5.85 | < 5.00 | CC1(c2cccc3ccccc23)C(=O)N(CCCn2ccnc2)C(=O)N1Cc1ccc(C(=O)N2CCOCC2)cc1 (stereo not drawn) [Compound 40] | > 4.70
7.30 | < 5.00 | CSCC[C@H](NC(=O)CC1C(=O)N(Cc2cncn2Cc2ccc(C#N)cc2)C(=O)N1Cc1cccc2ccccc12)C(=O)O (stereo partly drawn) [Compound 86, (2S)-(2-{1-[3-(4-cyano-benzyl)-3H-imidazol-ylmethyl]-3-naphthalen-1-ylmethyl-2,5-dioxo-imidazolidin-4-yl}-acetamino)4-methylsulfanyl-butyric acid] | > 5.00
7.36 | < 5.00 | CN1C(=O)N(CCCc2cncn2Cc2ccc(C#N)cc2)C(=O)C1(C)c1cccc2ccccc12 (stereo not drawn) [Compound 46, 4-{5-[3-(3-methyl-4-methyl-4-naphthalen-1-yl-2,5-dioxo-imidazolidin-1-yl)-propyl]-imidazol-1-ylmethyl}-benzonitrile] | > 4.70
7.30 | < 5.00 | CCOC(=O)CC1C(=O)N(Cc2cncn2Cc2ccc(C#N)cc2)C(=O)N1Cc1cccc2ccccc12 (stereo not drawn) [Compound 77, {1-[3-(4-cyano-benzyl)-3H-imidazol-4-ylmethyl]-3-naphthalen-1-ylmethyl-2,5-dioxo-imidazolidin-4-yl}-acetic acid ethyl ester] | > 5.00
9.10 | 5.47 | CSCCC(NC(=O)CN1C(=O)N(CCCc2c[nH]cn2)C(=O)C1(C)c1cccc2ccccc12)C(=O)O (stereo not drawn) [Compound 2, 2-(2-{3-[3-(1H-imidazol-4-yl)-propyl]-5-methyl-5-naphthalen-1-yl-2,4-dioxo-imidazolidin-1-yl}-acetylamino)-4-methylsulfanyl-butyric acid] | 5.30
5.30 | < 5.00 | CC1(c2cccc3ccccc23)NC(=O)N(CCCc2cncn2Cc2ccc(Br)cc2)C1=O (stereo not drawn) [Compound 68, 3-{3-[3-(4-bromo-benzyl)-3H-imidazol-4-yl]-propyl}-5-methyl-5-naphthalen-1-yl-imidazolidin-2,4-dione] | > 4.70
7.05 | < 5.00 | N#Cc1ccc(Cn2cncc2CN2C(=O)C(CC(=O)N3CCOCC3)N(Cc3cccc4ccccc34)C2=O)cc1 (stereo not drawn) [Compound 80, 4-{5-[4-(2-morpholin-4-yl-2-oxo-ethyl)-3-naphthalen-1-ylmethyl-2,5dioxo-imidazolidin-1-ylmethyl]-imidazol-1-ylmethyl}-benzonitrile] | > 5.00
8.70 | < 5.00 | CSCCC(NC(=O)CN1C(=O)N(CCn2ccnc2)C(=O)C1(C)c1cccc2ccccc12)C(=O)O (stereo not drawn) [Compound 15, 2-{2-[3-(2-imidazol-1-yl-ethyl)-5-methyl-5-naphthalen-1-yl-2,4-dioxo-imidazolidin-1-yl]-acetylamino}-4-methylsulfanyl-butyric acid] | > 4.70
6.52 | < 5.00 | CN1C(=O)N(CCCc2cncn2Cc2ccc(Br)cc2)C(=O)C1(C)c1cccc2ccccc12 (stereo not drawn) [Compound 69, 3-{3-[3-(4-bromo-benzyl)-3H-imidazol-4-yl]-propyl}-1,5-di-methyl-5-naphthalen-1-yl-imidazolidin-2,4-dione] | > 4.70
7.40 | < 5.00 | CCCN1C(=O)N(CCCc2cncn2Cc2ccc(C#N)cc2)C(=O)C1(C)c1cccc2ccccc12 (stereo not drawn) [Compound 48, 4-{5-[3-(3-propyl-4-methyl-4-naphthalen-1-yl-2,5-dioxo-imidazolidin-1-yl)-propyl]-imidazol-1-ylmethyl}benzonitrile] | > 4.70
8.82 | < 5.00 | CC1(c2cccc3ccccc23)C(=O)N(CCCc2cnc[nH]2)C(=O)N1CC(=O)NC(CCS(C)(=O)=O)C(=O)O (stereo not drawn) [Compound 13, 2-(2-{3-[3-(3H-imidazol-4-yl)-propyl]-5-methyl-5-naphthalen-1-yl-2,4-dioxo-imidazolidin-1-yl}-acetylamino)-4-methylsulfonyl-butyric acid] | > 4.70
8.32 | 6.15 | CSCCC(NC(=O)CN1C(=O)N(CCc2c[nH]cn2)C(=O)C1(C)c1cccc2ccccc12)C(=O)O (stereo not drawn) [Compound 4, 2-(2-{3-[2-(1H-imidazol-4-yl)-ethyl]-5-methyl-5-naphthalen-1-yl-2,4-dioxo-imidazolidin-1-yl}-acetylamino)-4-methylsulfanyl-butyric acid] | 5.00
5.89 | < 5.00 | CC1(c2cccc3ccccc23)C(=O)N(CCCn2ccnc2)C(=O)N1Cc1ccc(C#N)cc1 (stereo not drawn) [Compound 33, 4-[3-(3-imidazol-1-yl-propyl)-5-methyl-5-naphthalen-1-yl-2,4-dioxo-imidazolidin-1-ylmethyl]-benzonitrile] | > 4.70
5.60 | < 5.00 | CC1(c2cccc3ccccc23)C(=O)N(CCCn2ccnc2)C(=O)N1Cc1ccccc1 (stereo not drawn) [Compound 16, 1-benzyl-3-(3-imidazol-1-yl-propyl)-5-methyl-5-naphthalen-1-yl-imidazolidin-2,4-dione] | > 4.70
7.35 | < 5.00 | CC1(c2cccc3ccccc23)C(=O)N(CCCc2cncn2Cc2ccc(C#N)cc2)C(=O)N1Cc1ccco1 (stereo not drawn) [Compound 55, 4-{5-[3-(3-furan-2-ylmethyl-4-methyl-4-naphthalen-1-yl-2,5-dioxo-imidazolidin-1-yl)-propyl]-imidazol-1-ylmethyl}-benzonitrile] | > 4.70
6.10 | < 5.00 | O=C1CN(c2cccc3ccccc23)C(=O)N1Cc1cncn1Cc1ccc(Cl)cc1 [Compound 73, 3-[3-(4-chloro-benzyl)-3H-imidazol-4-ylmethyl]-1-naphthalen-1-yl-imidazolidin-2,4-dione] | > 5.00
6.14 | < 5.00 | CC1(c2cccc3ccccc23)C(=O)N(CCCn2ccnc2)C(=O)N1Cc1cccc(Oc2ccccc2)c1 (stereo not drawn) [Compound 25, 3-(3-imidazol-1-yl-propyl)-5-methyl-5-naphthalen-1-yl-1-(3-phenoxy-benzyl)-imidazolidin-2,4-dione] | > 4.70
6.70 | < 5.00 | COC(=O)[C@H](CCSC)NC(=O)CC1C(=O)N(Cc2cncn2Cc2ccc(C#N)cc2)C(=O)N1Cc1cccc2ccccc12 (stereo partly drawn) [Compound 85, (2S)-(2-{1-[3-(4-cyano-benzyl)-3H-imidazol-4-ylmethyl]-3-naphthalen-1-ylmethyl-2,5-dioxo-imidazolidin-4-yl}-acetamino)-4-methylsulfanyl-butyric acid methyl ester] | > 4.30
